Patent US20200017496A1 (priority 2017, published 2020)
Where two headings read alike, the source gives them in different places.

Columns and labels:
Experiment in all cases: MIC of compounds alone and combined with antibacterials, broth microdilution (CLSI)
Format in all cases: cell-based
[1] = tested on: Klebsiella oxytoca (KOX) isolates; conditions: for MIC: Klebsiella oxytoca
Procedure, shortened: (§1)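 Inoculum 5·10^5 CFU/mL (final), log phase, ca-MHB; 16-20 h, 35° C, ambient air. MIC = lowest conc. with no visible growth; ATB MIC read at each compound level.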

[2] = tested on: Citrobacter freundii (CFR) isolates; conditions: for MIC: Citrobacter freundii, read-out: MIC
Procedure, shortened: as §1

[3] = tested on: Salmonella typhimurium (STY) isolates; conditions: for MIC ATB in combination: STY S3371; for MIC: Salmonella enterica, TYPHIMURIUM, strain STY S3371 (OXA-1)
Procedure, shortened: as §1

[4] = tested on: Providencia rettgeri (PRE) isolates
Procedure, shortened: as §1

[5] = tested on: Citrobacter koseri (CKR) isolates; conditions: for MIC: Citrobacter koseri, read-out: MIC
Procedure, shortened: as §1

[6] = tested on: Enterobacter cloacae (ECL) isolates
Procedure, shortened: as §1

C=CC1=C(C(=O)O)N2C(=O)[C@@H](NC(=O)/C(=N\OCC(=O)O)c3csc(N)n3)[C@H]2SC1 [FIX, Cefixime]
MIC ATB in combination ([1]; KOX UFR21, AF1 @ 4 μg/mL): 2 µg/mL
MIC ATB in combination ([1]; KOX UFR21, AF1 @ 8 μg/mL): 1 µg/mL
MIC ATB in combination ([1]; KOX UFR173, AF1 @ 4 μg/mL): <=0.25 μg/mL
MIC ATB in combination ([1]; KOX UFR173, AF1 @ 8 μg/mL): <=0.25 μg/mL
MIC ATB in combination ([1]; KOX UFR223, AF1 @ 4 μg/mL): <=0.25 μg/mL
MIC ATB in combination ([1]; KOX UFR223, AF1 @ 8 μg/mL): <=0.25 μg/mL
MIC ATB in combination ([1]; KOX UFR224, AF1 @ 4 μg/mL): <=0.25 μg/mL
MIC ATB in combination ([1]; KOX UFR224, AF1 @ 8 μg/mL): <=0.25 μg/mL
MIC ([1]; strain KOX UFR21 (TEM-1, CTX-M-15, OXA-48), ATB alone): > 128 µg/mL
MIC ([1]; strain KOX UFR21 (TEM-1, CTX-M-15, OXA-48), CLA @ 4 μg/ml+ ATB): > 128 µg/mL
MIC ([1]; strain KOX UFR173 (OXY2-2), ATB alone, read-out: MIC): 16 µg/mL
MIC ([1]; strain KOX UFR173 (OXY2-2), CLA @ 4 μg/ml+ ATB, read-out: MIC): 4 µg/mL
MIC ([1]; strain KOX UFR223 (SHV-11, OXA-48), ATB alone, read-out: MIC): ≤ 0.125 µg/mL
MIC ([1]; strain KOX UFR223 (SHV-11, OXA-48), CLA @ 4 μg/ml+ ATB, read-out: MIC): ≤ 0.25 µg/mL
MIC ([1]; strain KOX UFR224 (CTX-M-15, OXA-48), ATB alone): > 128 µg/mL
MIC ([1]; strain KOX UFR224 (CTX-M-15, OXA-48), CLA @ 4 μg/ml+ ATB, read-out: MIC): 8 µg/mL
MIC ATB in combination [2]: >128 µg/mL
MIC ATB in combination ([2]; CFR UFR10, AF1 @ 4 μg/mL): <=0.25 μg/mL
MIC ATB in combination ([2]; CFR UFR10, AF1 @ 8 μg/mL): <=0.25 μg/mL
MIC ATB in combination ([2]; CFR UFR11, AF1 @ 4 μg/mL): 8 µg/mL
MIC ATB in combination ([2]; CFR UFR11, AF1 @ 8 μg/mL): 4 µg/mL
MIC ATB in combination ([2]; CFR UFR83, AF1 @ 8 μg/mL): 128 µg/mL
MIC ATB in combination ([2]; CFR UFR146, AF1 @ 4 μg/mL): 1 µg/mL
MIC ATB in combination ([2]; CFR UFR146, AF1 @ 8 μg/mL): 1 µg/mL
MIC ATB in combination ([2]; CFR UFR248, AF1 @ 4 μg/mL): <=0.25 μg/mL
MIC ATB in combination ([2]; CFR UFR248, AF1 @ 8 μg/mL): <=0.25 μg/mL
MIC ATB in combination ([2]; CFR UFR249, AF1 @ 4 μg/mL): <=0.25 μg/mL
MIC ATB in combination ([2]; CFR UFR249, AF1 @ 8 μg/mL): <=0.25 μg/mL
MIC ATB in combination ([2]; CFR UFR250, AF1 @ 4 μg/mL): <=0.25 μg/mL
MIC ATB in combination ([2]; CFR UFR250, AF1 @ 8 μg/mL): <=0.25 μg/mL
MIC ([2]; ATB alone, strain CFR UFR253 (TEM-1, SHV-12, OXA-48)): > 128 µg/mL
MIC ([2]; ATB alone, strain CFR UFR254 (VEB-1b, OXA-48, qnrA)): 32 µg/mL
MIC ([2]; ATB combined with CLA @ 4 μg/ml, strain CFR UFR253 (TEM-1, SHV-12, OXA-48)): > 128 µg/mL
MIC ([2]; ATB combined with CLA @ 4 μg/ml, strain CFR UFR254 (VEB-1b, OXA-48, qnrA)): 16 µg/mL
MIC ([2]; CFR UFR250, alone): > 128 µg/mL
MIC ([2]; strain CFR UFR10 (OXA-48), ATB alone): > 128 µg/mL
MIC ([2]; strain CFR UFR10 (OXA-48), CLA @ 4 μg/ml+ ATB): 32 µg/mL
MIC ([2]; strain CFR UFR11 (TEM-1, OXA-1, OXA-48), ATB alone): 32 µg/mL
MIC ([2]; strain CFR UFR11 (TEM-1, OXA-1, OXA-48), CLA @ 4 μg/ml+ ATB): 32 µg/mL
MIC ([2]; strain CFR UFR83 (TEM-3, AmpC), ATB alone): > 128 µg/mL
MIC ([2]; strain CFR UFR83 (TEM-3, AmpC), CLA @ 4 μg/ml+ ATB): > 128 µg/mL
MIC ([2]; strain CFR UFR146 (TEM-1, KPC-2), ATB alone): 64 µg/mL
MIC ([2]; strain CFR UFR146 (TEM-1, KPC-2), CLA @ 4 μg/ml+ ATB): 64 µg/mL
MIC ([2]; strain CFR UFR248 (CTX-M-15), ATB alone): > 128 µg/mL
MIC ([2]; strain CFR UFR248 (CTX-M-15), CLA @ 4 μg/ml+ ATB): 4 µg/mL
MIC ([2]; strain CFR UFR249 (TEM-1, CTX-M-15), ATB alone): > 128 µg/mL
MIC ([2]; strain CFR UFR249 (TEM-1, CTX-M-15), CLA @ 4 μg/ml+ ATB): 2 µg/mL
MIC ([2]; strain CFR UFR250 (TEM-1, SHV-28, CTX-M-15), ATB alone): > 128 µg/mL
MIC ([2]; strain CFR UFR250 (TEM-1, SHV-28, CTX-M-15), CLA @ 4 μg/ml+ ATB): 2 µg/mL
MIC ATB in combination ([2]; strain CFR UFR253, antibacterial combined with AF1 @ 4 μg/mL): 32 µg/mL
MIC ATB in combination ([2]; strain CFR UFR253, antibacterial combined with AF1 @ 8 μg/mL): 16 µg/mL
MIC ATB in combination ([2]; strain CFR UFR254, antibacterial combined with AF1 @ 4 μg/mL): 0.5 µg/mL
MIC ATB in combination ([2]; strain CFR UFR254, antibacterial combined with AF1 @ 8 μg/mL): <=0.25 μg/mL
MIC ATB in combination ([3]; AF1 @ 4 μg/mL): <=0.25 μg/mL
MIC ATB in combination ([3]; AF1 @ 8 μg/mL): <=0.25 μg/mL
MIC ([3]; ATB alone): ≤ 0.25 µg/mL
MIC ([3]; CLA @ 4 μg/ml+ ATB): ≤ 0.25 µg/mL
MIC ([4]; ATB combined with CLA @ 4 μg/ml, strain PRE UFR236 (TEM-1, OXA-48)): 32 µg/mL
MIC ATB in combination ([4]; PRE UFR99, AF1 @ 4 μg/mL): >128 µg/mL
MIC ATB in combination ([4]; PRE UFR99, AF1 @ 8 μg/mL): >128 µg/mL
MIC ([4]; Providencia rettgeri, strain PRE UFR99 (OXA-1, OXA-181), ATB alone): > 128 µg/mL
MIC ([4]; Providencia rettgeri, strain PRE UFR99 (OXA-1, OXA-181), CLA @ 4 μg/ml+ ATB): > 128 µg/mL
MIC ([4]; Providencia rettgeri, ATB alone, strain PRE UFR236 (TEM-1, OXA-48), read-out: MIC): 32 µg/mL
MIC ATB in combination ([4]; strain PRE UFR236, antibacterial combined with AF1 @ 4 μg/mL): 1 µg/mL
MIC ATB in combination ([4]; strain PRE UFR236, antibacterial combined with AF1 @ 8 μg/mL): 0.5 µg/mL
MIC ATB in combination ([5]; CKO ROU, AF1 @ 4 μg/mL): <=0.25 μg/mL
MIC ATB in combination ([5]; CKO ROU, AF1 @ 8 μg/mL): <=0.25 μg/mL
MIC ATB in combination ([5]; CKO UFR149, AF1 @ 4 μg/mL): 0.5 µg/mL
MIC ATB in combination ([5]; CKO UFR149, AF1 @ 8 μg/mL): <=0.25 μg/mL
MIC ATB in combination ([5]; CKO UFR150, AF1 @ 4 μg/mL): 2 µg/mL
MIC ATB in combination ([5]; CKO UFR150, AF1 @ 8 μg/mL): 1 µg/mL
MIC ([5]; strain CKO ROU (TEM-1, SHV-12, CTX-M-15, OXA-1, OXA-48), ATB alone): 1 µg/mL
MIC ([5]; strain CKO ROU (TEM-1, SHV-12, CTX-M-15, OXA-1, OXA-48), CLA @ 4 μg/ml+ ATB): 2 µg/mL
MIC ([5]; strain CKO UFR149 (OXA-48), ATB alone): 0.5 µg/mL
MIC ([5]; strain CKO UFR149 (OXA-48), CLA @ 4 μg/ml+ ATB): 1 µg/mL
MIC ([5]; strain CKO UFR150 (TEM-1, OXA-48), ATB alone): 2 µg/mL
MIC ([5]; strain CKO UFR150 (TEM-1, OXA-48), CLA @ 4 μg/ml+ ATB): 2 µg/mL
MIC ATB in combination ([6]; ECL 2185D, AF1 @ 4 μg/mL): >128 µg/mL
MIC ATB in combination ([6]; ECL 2185D, AF1 @ 8 μg/mL): 64 µg/mL
MIC ATB in combination ([6]; ECL 190310, AF1 @ 4 μg/mL): 64 µg/mL
MIC ATB in combination ([6]; ECL 190310, AF1 @ 8 μg/mL): 32 µg/mL
MIC ATB in combination ([6]; ECL 190408, AF1 @ 4 μg/mL): 0.5 µg/mL
MIC ATB in combination ([6]; ECL 190408, AF1 @ 8 μg/mL): 0.25 µg/mL
MIC ATB in combination ([6]; ECL 200138, AF1 @ 4 μg/mL): 64 µg/mL
MIC ATB in combination ([6]; ECL 200138, AF1 @ 8 μg/mL): 16 µg/mL
MIC ATB in combination ([6]; ECL 200322, AF1 @ 4 μg/mL): 0.5 µg/mL
